Results on eleven compounds are retold here after BindingDB's records for patent WO2022104348 (Janssen Pharmaceutica, 2022).

Chain of Mitogen-activated protein kinase kinase kinase 14 (Q99558 whole entry): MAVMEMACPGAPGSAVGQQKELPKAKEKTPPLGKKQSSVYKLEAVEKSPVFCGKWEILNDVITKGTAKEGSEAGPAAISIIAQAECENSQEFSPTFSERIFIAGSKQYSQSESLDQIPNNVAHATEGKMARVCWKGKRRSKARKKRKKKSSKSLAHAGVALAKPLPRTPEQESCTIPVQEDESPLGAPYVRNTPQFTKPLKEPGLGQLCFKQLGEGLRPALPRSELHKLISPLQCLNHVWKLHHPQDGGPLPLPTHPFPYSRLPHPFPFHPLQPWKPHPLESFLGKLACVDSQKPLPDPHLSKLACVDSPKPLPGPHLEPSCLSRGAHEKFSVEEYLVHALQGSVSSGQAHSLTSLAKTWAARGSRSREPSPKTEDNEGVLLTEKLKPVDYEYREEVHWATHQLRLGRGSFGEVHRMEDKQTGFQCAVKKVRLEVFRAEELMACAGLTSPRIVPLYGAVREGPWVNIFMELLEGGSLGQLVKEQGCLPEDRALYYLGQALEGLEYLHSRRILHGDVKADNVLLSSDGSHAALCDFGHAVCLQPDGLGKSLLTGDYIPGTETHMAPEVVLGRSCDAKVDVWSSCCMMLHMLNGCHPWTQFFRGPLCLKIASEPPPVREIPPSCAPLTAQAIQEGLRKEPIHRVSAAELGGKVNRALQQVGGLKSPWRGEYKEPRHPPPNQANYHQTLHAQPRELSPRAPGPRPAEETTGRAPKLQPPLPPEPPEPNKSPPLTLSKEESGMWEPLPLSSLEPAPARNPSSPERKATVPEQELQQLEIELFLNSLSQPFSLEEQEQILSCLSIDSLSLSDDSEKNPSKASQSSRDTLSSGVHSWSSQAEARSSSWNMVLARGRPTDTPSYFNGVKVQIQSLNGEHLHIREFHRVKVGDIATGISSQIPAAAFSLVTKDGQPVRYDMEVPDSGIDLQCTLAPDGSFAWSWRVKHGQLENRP

The test has as its target Mitogen-activated protein kinase kinase kinase 14 (Homo sapiens, UniProt Q99558). The test can be described thus: Inhibition of auto-phosphorylation of recombinant human NF-kappaB-inducing kinase (NIK/MAP3K14) activity. As for the experimental part:
NIK/MAP3K14 auto-phosphorylation activity was measured using the AlphaScreen (ascreen) format (Perkin Elmer). All compound6 tested were dissolved in dimethyl sulfoxide (DMSO) and further dilutions were made in assay buffer. The final DMSO concentration was 0.7% (v/v) in assays. The assay buffer was 50 mM Tris pH 7.5 containing 1 mM EGTA (ethylene glycol tetraacetic acid), 1 mM DTT (dithiothreitol), 0.1 mM NasVCO4, 5 mM MgCE, and 0.01 % Tween 20. The assays were carried out in 384 well Proxiplates (Perkin Elmer). The incubations consisted of the compound, […] Adenosine-5'-triphosphate (ATP), and 1 nM NIK/MAP3K14. Incubations were initiated by the addition of GST-tagged NIK/MAP3K14 enzyme, carried out for 2 h at 25 °C and terminated by addition of stop buffer containing anti-phospho-IKK Ser176/180 antibody. Protein A Acceptor and Glutathione-Donor bead6 were added before reading using an EnVision Multilabel Plate Reader (Perkin Elmer). The signal obtained in the wells was normalized using high (full enzyme activity, 0.7% DMSO) and low controls (no enzyme activity, 0.7% DMSO, no ATP). IC50 s were determined by fitting a sigmoidal curve to % inhibition of control versus Log compound concentration.
In the case of `O[C@@]1(c2cccc(-c3csc(-c4c[nH]c5nccnc45)n3)c2)CCn2ccnc21` [WO2022104348, Example 41], the concentration for half-maximal inhibition (IC50) is less than 100 nM.

On to `O[C@@]1(c2cccc(-c3csc(-c4c[nH]c5ncccc45)n3)c2)CCCn2ccnc21` [WO2022104348, Example 38], for which the IC50 was less than 100 nM. To `CN1C[C@](O)(c2cccc(-c3csc(-c4c[nH]c5nccnc45)n3)c2)C1=O` [WO2022104348, Example 46] belongs more than 500 nM; to `O[C@@]1(c2cccc(-c3csc(-c4c[nH]c5ncc(F)c(F)c45)n3)c2)CCn2ccnc21` [WO2022104348, Example 96], less than 100 nM; to `CN1CC[C@@](O)(c2cccc(-c3nc(-c4c[nH]c5ncccc45)sc3CO)c2)C1=O` [WO2022104348, Example 50], less than 100 nM.

Turning to `CN1CCC[C@](O)(c2cccc(-c3csc(-c4c[nH]c5nccnc45)n3)c2)C1=O` [WO2022104348, Example 55], the IC50 was more than 500 nM.

Turning to `O[C@@H]1C[C@](O)(c2cccc(-c3csc(-c4c[nH]c5ncccc45)n3)c2)c2ncccc21` [WO2022104348, Example 104], the IC50 is more than 500 nM. In the case of `CC1(C)Cc2cccnc2[C@]1(O)c1cccc(-c2csc(-c3c[nH]c4ncccc34)n2)c1` [WO2022104348, Example 36], the 50% inhibitory concentration (IC50) is less than 100 nM.

Take `Cc1cnc2[nH]cc(-c3nc(-c4cccc([C@]5(O)CCN(C)C5=O)c4)cs3)c2c1` [WO2022104348, Example 7]: the IC50 is less than 100 nM. Regarding `CN1C[C@@](O)(c2cccc(-c3csc(-c4c[nH]c5nccnc45)n3)c2)C1=O` [WO2022104348, Example 45], the 50% inhibitory concentration (IC50) is more than 500 nM. To `CN1CC[C@@](O)(c2cccc(-c3nc(-c4cccc5[nH]ncc45)cs3)c2)C1=O` [WO2022104348, Example 131] belongs more than 500 nM.
